Biological target: T1, Nav1.7 (hNav1.7) (Homo sapiens, UniProt Q15858, F1748A/Y1755A)
T1 construct: gene SCN9A; F1737A/Y1744A mutant hNav1.7 transiently expressed in HEK293 cells
Experiment: whole-cell patch clamp, % reduction of peak current at […]
Format: cell-based
Conditions: read-out: % block at 200 μM

T1 sequence (Q15858 whole entry F1748A/Y1755A): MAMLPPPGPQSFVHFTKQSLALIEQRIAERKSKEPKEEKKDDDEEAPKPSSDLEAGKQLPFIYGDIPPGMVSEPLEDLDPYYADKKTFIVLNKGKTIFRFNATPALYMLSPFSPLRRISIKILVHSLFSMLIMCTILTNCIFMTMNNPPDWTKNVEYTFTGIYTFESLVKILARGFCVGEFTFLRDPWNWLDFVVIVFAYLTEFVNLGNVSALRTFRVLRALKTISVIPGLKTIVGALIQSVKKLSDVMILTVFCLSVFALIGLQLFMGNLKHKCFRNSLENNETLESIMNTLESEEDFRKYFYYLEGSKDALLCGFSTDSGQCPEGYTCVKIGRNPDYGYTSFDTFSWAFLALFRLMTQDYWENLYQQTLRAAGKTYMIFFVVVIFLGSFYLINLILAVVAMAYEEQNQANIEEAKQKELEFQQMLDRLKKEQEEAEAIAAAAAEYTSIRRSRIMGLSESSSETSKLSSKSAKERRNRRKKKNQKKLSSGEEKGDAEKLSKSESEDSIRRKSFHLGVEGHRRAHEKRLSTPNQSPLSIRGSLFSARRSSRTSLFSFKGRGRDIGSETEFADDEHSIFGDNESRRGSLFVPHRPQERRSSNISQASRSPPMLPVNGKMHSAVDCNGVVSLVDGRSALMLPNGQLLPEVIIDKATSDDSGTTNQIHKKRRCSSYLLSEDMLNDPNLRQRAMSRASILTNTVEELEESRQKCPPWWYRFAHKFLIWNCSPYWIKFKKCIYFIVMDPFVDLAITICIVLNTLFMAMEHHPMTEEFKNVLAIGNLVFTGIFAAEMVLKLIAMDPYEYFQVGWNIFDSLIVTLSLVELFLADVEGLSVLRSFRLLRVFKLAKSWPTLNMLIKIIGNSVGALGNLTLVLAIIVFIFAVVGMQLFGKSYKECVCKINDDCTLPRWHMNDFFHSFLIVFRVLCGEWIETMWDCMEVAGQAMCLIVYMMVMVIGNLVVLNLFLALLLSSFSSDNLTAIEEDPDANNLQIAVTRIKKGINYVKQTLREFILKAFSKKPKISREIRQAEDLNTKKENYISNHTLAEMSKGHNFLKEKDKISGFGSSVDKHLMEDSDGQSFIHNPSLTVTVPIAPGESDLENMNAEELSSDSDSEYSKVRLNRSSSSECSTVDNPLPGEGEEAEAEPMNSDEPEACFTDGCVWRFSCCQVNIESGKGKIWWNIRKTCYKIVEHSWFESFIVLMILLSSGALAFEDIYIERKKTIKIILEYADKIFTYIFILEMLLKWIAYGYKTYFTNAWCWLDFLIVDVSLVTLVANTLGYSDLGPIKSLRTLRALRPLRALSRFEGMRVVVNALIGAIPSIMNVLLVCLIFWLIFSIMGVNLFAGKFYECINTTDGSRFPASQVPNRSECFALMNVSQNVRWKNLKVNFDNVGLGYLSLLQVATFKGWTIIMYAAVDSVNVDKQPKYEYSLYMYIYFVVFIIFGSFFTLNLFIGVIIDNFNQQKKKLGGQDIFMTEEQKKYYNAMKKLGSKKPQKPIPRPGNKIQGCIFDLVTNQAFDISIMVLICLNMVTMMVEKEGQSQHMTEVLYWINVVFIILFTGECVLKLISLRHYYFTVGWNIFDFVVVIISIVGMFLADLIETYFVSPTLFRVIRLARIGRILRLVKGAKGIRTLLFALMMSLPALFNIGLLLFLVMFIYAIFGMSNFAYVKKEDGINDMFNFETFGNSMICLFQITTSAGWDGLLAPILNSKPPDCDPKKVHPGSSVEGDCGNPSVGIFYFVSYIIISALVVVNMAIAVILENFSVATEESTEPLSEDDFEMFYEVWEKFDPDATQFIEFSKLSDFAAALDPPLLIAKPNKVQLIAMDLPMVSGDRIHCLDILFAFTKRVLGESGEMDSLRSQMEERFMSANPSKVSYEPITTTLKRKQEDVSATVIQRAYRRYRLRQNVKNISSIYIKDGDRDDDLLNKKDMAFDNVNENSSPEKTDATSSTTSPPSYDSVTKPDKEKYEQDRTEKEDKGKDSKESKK

inhibition at 200 µM: 38%
Compound: N#Cc1c(O)c2c(-c3ccc(-c4ccccc4O)cc3)csc2[nH]c1=O [A769662]

— PMC5261566, “The AMPK Activator A769662 Blocks Voltage-Gated Sodium Channels: Discovery of a Novel Pharmacophore with Potential Utility for Analgesic Development” (PLoS ONE, 2017)
